Assay results published in US20160317560A1, “PARTICLES CONTAINING PHOSPHOLIPIDS OR BIOACTIVE FATTY ACIDS AND USES THEREOF” (THE UNIVERSITY OF NORTH CAROLINA AT CHAPEL HILL, priority 2013, published 2016).
Entries after “also recorded” stand apart in the source; their conditions may differ.

What was measured:
2D2 T cells = assay: Murine DC/T-cell co-culture (mouse dendritic cells and MOG-specific 2D2 T cells), T-cell activation and Treg induction; format: cell-based; conditions: for IFN-γ production by T cells: in the presence of MOG antigen, 50 μM PS (FIG. 11A)
Description: FIG. 5 depicts a murine model of multiple sclerosis (2D2) for evaluating T-cell activation in murine DC/T-cell co-culture.
FIG. 11A-B depicts programming regulatory T cells with phosphatidylserine Nanoparticles. A) Flow plots of 2D2 T cells after co-stimulation with bone-marrow derived dendritic cells+/−the MOG peptide. […] (*=p<0.05).
Using a co-culture model with mouse dendritic cells and 2D2 T cells specific for the MOG-peptide, Th1-skewed IFN-γ producing T cells were turned into FOXP3+, IL-10 producing T regulatory cells (FIGS. 10 and 11). In the absence of antigen, roughly 20% of all T cells were programmed into anti-inflammatory IL-10 producing FOXP3+ regulatory T cells. This was about a 10-15 fold increase as compared to blank PLGA particles controls. This was about 4-5 fold increase over the soluble PS control at the same dose. This is an exceptionally high % of T regulatory cells in any in vitro or in vivo system.
In the presence of soluble MOG antigen, about 10% of T cells produced IFN-γ in the blank 80×320 nm PLGA control group. […] The presence of antigen led to a 10% IL-10+, FOXP3+ T regulatory population in the presence of blank PLGA particles or soluble PS. PS-PLGA particles induced 2 fold higher levels of this regulatory T cell population, about 20% of all T cells.

[1] = tested on: bone marrow derived mouse macrophages; assay: Inflammasome activation in bone marrow derived mouse macrophages; format: cell-based; conditions: 1 μm and 80×320 nm particles; soluble form at the same dose; FIG. 19
Description: FIG. 19. Anti-inflammatory Programming Particles.
Disclosed herein are data showing emergent properties when bioactive fatty acids and phospholipids are delivered via the particles described herein. […] Other phospholipids and bioactive fatty acids could have similar properties when particulated as described herein.

[2] = tested on: primary progressive multiple sclerosis; assay: Murine model of primary progressive multiple sclerosis; format: in vivo; conditions: 14 day study
Description: FIG. 15 depicts a murine model of primary progressive multiple sclerosis. Reproduced from the Reeves Foundation. FIG. 16 provides data showing PS-loaded particles reduce MS symptoms. The study was 14 days to emphasize the suppression of the neuroinflammation ramp-up during the model.

## CCCCCCCC/C=C\CCCCCCCC(=O)O[C@H](COC(=O)CCCCCCCCCCCCCCCCC)COP(=O)(O)OC[C@H](N)C(=O)[O-].[Na+] [PS SOL, Phosphatidylserine]
2D2 T cells; FIG. 11A, 50 μM PS
  FOXP3+ T cells: not seen
2D2 T cells
  IFN-γ production by T cells: inhibit IFN-γ production
2D2 T cells; listed as soluble PS
  IFN-γ production by T cells: inhibited to baseline levels; also recorded: can inhibit IFN-γ as well as particulate PS
2D2 T cells; listed as soluble phosphatidylserine (PS)
  IFN-γ production by T cells: dampen IFN-γ production
2D2 T cells; presence of soluble MOG antigen
  IL-10+, FOXP3+ T regulatory population, % of all T cells: 10%
[1]
  inflammasome activation / signaling: exacerbated inflammation
[2]; (+/−)
  Maximum Score: 0.8 (+/−0.2)
[2]; (affected/total animals)
  Disease Incidence: 83% (10/12)
